For assay [1], the system named is neonatal rat ventricular myocytes. As to the kind of experiment: Hypertrophy of cultured neonatal rat ventricular myocytes (cross-section area, ANF expression). The class given is cell-based. To be noted: for agonist-induced myocyte hypertrophy: pan-RSK inhibitors, neonatal myocytes. As to the method: Neonatal rat myocytes isolation and culture: 1-3 day old Sprague-Dawley rats were decapitated and the excised hearts placed in 1×ADS Buffer (116 mmol/L NaCl, 20 mmol/L HEPES, 1 mmol/L NaH2PO4, 5.5 mmol/L glucose, 5.4 mmol/L KCl, 0.8 mmol/L MgSO4, pH 7.35). The atria were carefully removed and the blood washed away. The ventricles were minced and incubated with 15 mL 1×ADS Buffer containing 3.3 mg type II collagenase (Worthington, 230 U/mg) and 9 mg Pancreatin (Sigma) at 37° C. while shaking at 80 RPM. After 15 minutes, the dissociated cardiac myocytes were separated by centrifugation at 50×g for 1 minute, resuspended in 4 mL horse serum and incubated 37° C. with occasional agitation. The steps for enzymatic digestion and isolation of myocytes were repeated 10-12 times to maximize yield. The myocytes were pooled and spun down again at 50×g for 2 minutes and resuspended in Maintenance Medium (DMEM:M199, 4:1) supplemented with 10% horse serum and 5% fetal bovine serum. To remove any contaminating fibroblasts, the cells were pre-plated for 1 hour before plating on gelatin-coated tissue culture plasticware. This procedure yields >90% pure cardiac myocytes. After 1 day in culture, the media was changed to maintenance medium containing 0.1 mmol/L bromodeoxyuridine to suppress fibroblast growth.
Experiments were initiated 1 day after myocyte isolation. Adenoviral infection was performed by addition of adenovirus (multiplicity of infection=5-50) to the media. Plasmids and siRNA oligonucleotides were transfected using Transfast (Promega) and Dharmafect (Thermofisher), respectively, as recommended by the manufacturers using cells cultured in maintenance medium supplemented with 4% horse serum. Starting the day after gene transduction, the cells were treated for as long as 2 days, as indicated for each experiment. […]
Morphometry: Morphometric data was acquired using IPLab Software. […] For adult mouse cardiac myocytes, the maximum lengths perpendicular (width) or parallel (length) to the myofibrils were measured for >100 freshly dissociated myocytes per heart.

The subject of assay [2] is Noonan syndrome mouse model. Conditions: Wu 2011; cited from earlier work.
Another assay deals with NHE1. Conditions: Cuello 2007; cited from earlier work.
Another assay concerns RSK. As to the kind of experiment: RSK activation in neonatal rat ventricular myocytes (pan-RSK S218 phospho-specific antibody). Conditions: α-adrenergic stimulation, MEK1/2- and MEK5-dependent. The class given is cell-based. An excerpt: RSK family members can be activated in most cell types by ERK, but not c-Jun N-terminal kinases or p38 (Anjum 2008). ERK phosphorylation is permissive for PDK1 phosphorylation of the RSK N-terminal kinase domain, such that PDK1 phosphorylation of RSK S^218 is indicative of full activation of the enzyme (FIG. 4A of U.S. Pat. No. 9,132,174). […] The α-adrenergic stimulation with phenylephrine (PE) induced RSK phosphorylation 3-fold by both MEK1/2-dependent (that activates ERK1/2) and MEK5-dependent (that activates ERK5) mechanisms (FIG. 22 of U.S. Pat. No. 9,132,174).

The next assay deals with RSK3 and mAKAPβ. The assay can be described thus: Co-immunoprecipitation of endogenous RSK3 with mAKAPβ in neonatal myocytes. The format is cell-based, rat. To be noted: expressed in neonatal myocytes. As to the method: Immunoprecipitations: HEK293 and COS-7 cells were transfected with Lipofectamine 2000 (Invitrogen) or Polyethylenimine “Max” (Polysciences). Cells (including myocytes) were lysed in buffer (20 mmol/L HEPES, pH 7.4, 150 mmol/L NaCl, 5 mmol/L EDTA, 0.5% Triton, 50 mmol/L NaF, 1 mmol/L sodium orthovanadate, 1 mmol/L DTT, and protease inhibitors). After centrifugation at 10,000×g for 10 minutes at 4° C., the clarified extracts were used for immunoprecipitation using appropriate antibodies (10 μg purified antibody or 1-5 μL whole serum) and 20 μL protein G sepharose (Millipore, Fastflow) for 3 hours to overnight at 4° C. The beads were washed 3-5 times with lysis buffer, and the immunoprecipitated proteins were eluted with 1× Laemmli buffer for western blotting. Western blots were developed using horseradish peroxidase-conjugated donkey secondary antibodies, Supersignal West Chemiluminescent Substrates (Thermo Scientific) and X-ray film or a Fujifilm LAS-3000 imaging system.
B. Transfected myocytes expressing GFP or GFP-RBD (green) were stained with α-actinin (blue) and ANF (red) antibodies. Bar=20 μm. C. Cross-section area of myocytes. n=5. D. Fraction of myocytes expressing ANF. n=3. * p-values comparing to GFP-expressing samples. † p-values comparing to no agonist control.

Another assay has as its system wildtype mice. As to the kind of experiment: Transverse aortic constriction (2 week TAC) after AAV9 injection. The class given is in vivo, mouse. To be noted: AAV9 injected into neonatal mice, 2 week TAC at 8 weeks of age. The text has this: Transverse Aortic Constriction: All tools were sterilized with a Germinator 500 Dry Sterilizer and Betadine Solution (10% povidone-iodine topical solution). Anesthesia was induced with 5% isoflurane and maintained with 2% isoflurane and 100% oxygen at a flow rate of 1.5 L/min using a SurgiVet flow regulator via nose cone. Loss of consciousness was verified by toe pinch. Mouse fur over the left chest and sternum was removed with a calcium hydroxide lotion (e.g. Nair), and the surgical site was sterilized with betadine. The skin was incised exposing the pectoralis muscle and the second left intercostal space. […] The lobes of the thymus were retracted to reveal the transverse aortic arch as well as the right innominate and left common carotid arteries. […]
Echocardiography: Mice minimally anesthetized with 1-2% isoflurane were studied using a Vevo 770®, High-Resolution Imaging System (VisualSonics). The pressure gradient following TAC was calculated from the pulse wave Doppler velocity at the point of ligation as follows: P=4v^2; P=the induced pressure gradient (in mmHg) and v=the velocity across the constriction (in m/s).^7
AAV9 containing the indicated CIS plasmid encoding myc-GFP-mAKAP 1694-1833 were injected into neonatal wildtype mice. 2 week TAC was performed and analyzed as above at 8 weeks of age. […]

Here are results for seven molecules from patent publication US10907153B2, “Treatment of heart disease by inhibtion of the action of muscle A-kinase anchoring protein (mAKAP)” (priority 2017, dated 2021).

Consider `CC(C)CCN1c2nc(Nc3cc(F)c(O)c(F)c3)ncc2N(C)C(=O)C1C` (centres unmarked) [BI-D1870], for which the agonist-induced myocyte hypertrophy result in assay [1] is reported as “inhibited”. Take `O=C(NOC[C@H](O)CO)c1ccc(F)c(F)c1Nc1ccc(I)cc1F` [PD0325901]: in assay [2], the “progression of cardiac hypertrophy cardiomyopathy and other Noonan characteristics” value is on record as “attenuated progression”. With `CC(=O)OC1C(C)OC(Oc2c(-c3ccc(O)cc3)oc3cc(O)cc(O)c3c2=O)C(O)C1OC(C)=O` (centres unmarked) [SL0101], the agonist-induced myocyte hypertrophy entry in assay [1] is given as “inhibited”. In the case of `Cc1ccc(-c2c(C(=O)CF)n(CCCO)c3ncnc(N)c23)cc1` [fmk], the “α-adrenergic-induced NHE1 phosphorylation” value in the assay on NHE1 is reported as “blocked”. The molecule `CNC[C@H](O)c1cccc(O)c1` [phenylephrine] came in with an RSK phosphorylation induced in the assay with RSK of 3 fold.

B1: green fluorescent protein—mAKAP RBD fusion protein: GFP fused to the mAKAP RSK3 binding domain (mAKAP residues 1694 to 1833), an anchoring disruptor (protein)
chain: ELSLCSEDIVLHKNKIPESNASFRKRLNRSVADESDVNVSMIVNVSCTSACTDDEDDSDLLSSSTLTLTEEELCLKDEDDDSSIATDDEIYEESNLMSGLDYIKNELQTWIRPKLSLTREKKRSGVTDEIKVNKDGGGNE
modifications: left off: small tags and cut ends; large carriers
As for B1, in assay [1] (expressed in neonatal myocytes, phenylephrine), the PE-induced hypertrophy result is reported as “markedly inhibited”. The “association of endogenous RSK3 and mAKAPβ” value with RSK3 and mAKAPβ is given as “competed the association”.

B2: myc-GFP-mAKAP 1694-1833: myc-GFP-tagged mAKAP 1694-1833 expressed in vivo from AAV9 (protein)
chain: ELSLCSEDIVLHKNKIPESNASFRKRLNRSVADESDVNVSMIVNVSCTSACTDDEDDSDLLSSSTLTLTEEELCLKDEDDDSSIATDDEIYEESNLMSGLDYIKNELQTWIRPKLSLTREKKRSGVTDEIKVNKDGGGNE
modifications: left off: small tags and cut ends; large carriers
notes: myc-GFP-tagged mAKAP 1694-1833 expressed in vivo from AAV9
On to B2, for which the “concentric hypertrophy in vivo in the adult heart” value with wildtype mice is “inhibited concentric hypertrophy”.
